Measured values as given in US9957276B2, “CDK inhibitors” (G1 THERAPEUTICS, INC., priority 2010, dated 2018).

What follows are compounds tested against CDK2/cyclinE (Homo sapiens (Human), UniProt P24941) (assay: CDK2/cyclinE kinase enzymatic assay (Caliper LabChip)). Details: Table 2, class symbols; read-out: CDK2/CycE IC50.
Type: biochemical
Procedure: (§1) Kinase enzymatic reactions were performed in 384-well microplates using a 12-channel Caliper LabChip instrument as a detection device. […] As substrate and product are separated, two peaks of fluorescence are observed. Change in the relative fluorescence intensity of the substrate and product peaks is the parameter measured, reflecting enzyme activity. In the presence of an inhibitor, the ratio between product and substrate is altered. The signal of the product decreases, while the signal of the substrate increases.
(§2) Potential inhibitor compounds (as HCl salts) were tested using 12-point dose response curves in […] at the Km for ATP. The IC50 of each compound was determined using GraphPad Prism.
For `CN1CCn2c(cc3cnc(Nc4ccc(N5CCNCC5)cn4)nc32)C1=O` [Compound 5], the IC50 was > 100 µM. In the case of `CC(C)C1CNC(=O)c2cc3cnc(Nc4ccc(N5CCN(C)CC5)cn4)nc3n21` (stereo not shown) [Compound 7], the IC50 is reported as > 100 µM. In the case of `CN1CCN(c2ccc(Nc3ncc4cc5n(c4n3)[C@H]3CCC[C@@H]3NC5=O)nc2)CC1` [Compound 48], the IC50 is reported as > 100 µM. For `CCC(C)[C@H]1CN(C)C(=O)c2cc3cnc(Nc4ccc(N5CCN(C)CC5)cn4)nc3n21` (stereo partly shown) [Compound 18], the IC50 was > 100 µM. For `CC(C)[C@H]1CN(C)C(=O)c2cc3cnc(Nc4ccc(N5CCNCC5)cn4)nc3n21` [Compound 11], the IC50 was > 100 µM. For `CC(C)C[C@H]1CN(C)C(=O)c2cc3cnc(Nc4ccc(N5CCNCC5)cn4)nc3n21` [Compound 15], the IC50 was > 100 µM. For `CN1CC2(CCCC2)n2c(cc3cnc(Nc4ccc(N5CCNCC5)cn4)nc32)C1=O` [Compound 31], the IC50 was > 100 µM. For `CCC(C)[C@H]1CN(C)C(=O)c2cc3cnc(Nc4ccc(N5CCNCC5)cn4)nc3n21` (stereo partly shown) [Compound 19], the IC50 was > 100 µM. For `CN1CCN(c2ccc(Nc3ncc4cc5n(c4n3)CCNC5=O)nc2)CC1` [Compound 1], the IC50 was > 100 µM. In the case of `CC(C)CC1CN(C)C(=O)c2cc3cnc(Nc4ccc(N5CCNCC5)cn4)nc3n21` (stereo not shown) [Compound 47], the IC50 is reported as > 100 µM. With `CC(C)C[C@H]1CN(C)C(=O)c2cc3cnc(Nc4ccc(N5CCN(C)CC5)cn4)nc3n21` [Compound 14] the IC50 was > 100 µM. `O=C1N[C@H]2CCC[C@@H]2n2c1cc1cnc(Nc3ccc(N4CCNCC4)cn3)nc12` [Compound 49] gave an IC50 of 1 to 100 µM. `CC(C)C1CNC(=O)c2cc3cnc(Nc4ccc(N5CCN(C(=O)OC(C)(C)C)CC5)cn4)nc3n21` (stereo not shown) [Compound 6] was tested, and the IC50 was > 100 µM.

The compounds below were run against CDK4/CyclinD (Homo sapiens (Human), UniProt P11802) (assay: CDK4/CyclinD kinase enzymatic assay (Caliper LabChip)). Details: compounds as HCl salts, 12-point dose response, at the Km for ATP, three hours.
Chain of CDK4/CyclinD (P11802 whole entry, species assumed): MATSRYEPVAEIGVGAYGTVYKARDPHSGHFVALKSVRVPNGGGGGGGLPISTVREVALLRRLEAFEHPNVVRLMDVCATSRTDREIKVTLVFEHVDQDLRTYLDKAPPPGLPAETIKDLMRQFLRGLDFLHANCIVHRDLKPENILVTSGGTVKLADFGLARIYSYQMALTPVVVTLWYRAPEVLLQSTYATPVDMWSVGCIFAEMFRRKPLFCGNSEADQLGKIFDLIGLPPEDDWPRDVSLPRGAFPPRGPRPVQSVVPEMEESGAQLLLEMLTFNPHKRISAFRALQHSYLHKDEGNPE
Chain of CDK4/CyclinD (P24385 whole entry partner, species assumed): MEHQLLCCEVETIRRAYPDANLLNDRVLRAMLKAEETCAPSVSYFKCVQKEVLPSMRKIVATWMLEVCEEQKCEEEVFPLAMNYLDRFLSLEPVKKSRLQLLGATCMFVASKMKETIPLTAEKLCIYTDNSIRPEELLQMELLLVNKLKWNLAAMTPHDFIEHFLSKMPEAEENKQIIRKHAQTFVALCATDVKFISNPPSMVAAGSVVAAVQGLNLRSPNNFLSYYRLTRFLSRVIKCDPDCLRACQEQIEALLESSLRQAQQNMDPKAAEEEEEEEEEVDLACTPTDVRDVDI
Type: biochemical
Procedure: as §1, §2
`CN1CCN(c2ccc(Nc3ncc4cc5n(c4n3)CCNC5=O)nc2)CC1` [Compound 1] gave an IC50 of 0.453 µM.

Same assay, conditions: from the IC50 values
With `O=C1NCCn2c1cc1cnc(Nc3ccc(N4CCNCC4)cn3)nc12` [Compound 3] the “selectivity for Cdk4/CycD1 over Cdk2/CycE” value was 100 fold. In the case of `CN1CCN(c2ccc(Nc3ncc4cc5n(c4n3)CCNC5=O)nc2)CC1` [Compound 1], the “selectivity for Cdk4/CycD1 over Cdk2/CycE” value is reported as 200 fold.
